Reference: patent US11673965B2, “Method of treating metastatic triple negative breast cancer with radiotherapy combined with phosphatidyl inositol-3 kinase delta/gamma inhibitors and anti-PD-1 antibodies” (Seoul National University R&DB Foundation, priority 2019, dated 2023)

Tested on: 4T1-luc triple negative breast cancer cells
Experiment: Size change of tumor in triple negative breast cancer allograft mouse model
Format: in vivo, mouse (BALB/c)
Details: 31st day; 4T1-luc allograft; duvelisib 4 mg/kg and/or PD-1 blockade 10 mg/kg by injection 6 times; RT 8 Gy×3
Procedure: A triple negative breast cancer cell line (4T1-luc) was cultured in DMEM (Dulbecco's Modified Eagle's Medium, CORNING™) medium containing 10% (v/v) fetal bovine serum (FBS) and 1% (w/v) Penicillin-Streptomycin, using a cell culture flask, in a thermostat cell culture device under the condition of 37° C., 5% CO2.
6×10^5 4T1-luc triple negative breast cancer cells prepared in Example 1-1 were injected to the right hindlimb of a BALB/c female age standard (8 weeks) mice. At the 10th day after injecting each of the cancer cells, the mice with the tumor volume up to 40 mm^3 were selected, and were used for later experiments.
The triple negative breast cancer (TNBC) mouse model prepared by the method of Example 1-2 was assigned to 7 groups in total from the 10th day after cancer cell transplantation, and each treatment method was performed, and it was grouped into 7 groups so that the tumor mean volume of 7 mice was 40 mm^3 per group, and were used for later experiments.
Each treatment was progressed for 31 days after tumor transplantation. […]
On the day of each treatment, the size of tumor, the length and width were measured using Vernier caliper, and then the volume (mm^3) of tumor was calculated by the method of the following equation 1. […]

SMILES: C[C@H](Nc1ncnc2nc[nH]c12)c1cc2cccc(Cl)c2c(=O)n1-c1ccccc1 [PI3K γ δ inhibitor, duvelisib]
- Mean tumor volume: 786.59 mm^3
